The numbers were not newly measured in patent US8138216B2, “Cannabinoid receptor antagonists/inverse agonists useful for treating metabolic disorders, including obesity and diabetes” (Jenrin Discovery, Inc., priority 2007, dated 2012), which cites them from elsewhere.

The test system of the data set is patients with type 2 diabetes. The settings on record: after six months of treatment; baseline value 7.9; patients not treated with other anti-diabetic medications; placebo 0.3%.

For the compound `Cc1c(C(=O)NN2CCCCC2)nn(-c2ccc(Cl)cc2Cl)c1-c1ccc(Cl)cc1` [rimonabant], the HbA1c levels lowered was 0.8%.
